Like-named read-outs stand apart in the source and are kept apart here.
Key:
hsHexB [1] = molecular target: T1, hsHexB (Homo sapiens, UniProt P07686); assay: Inhibitory potency assay, end-point, 4-MU-GlcNAc substrate, pH 4.0; type: biochemical; conditions: for Inhibition potency against hsHexB (in words): each compound at 20 µM, Figure 3; for Ki: 4-MU-GlcNAc, pH 4.0, 30 °C, 30 min, read-out: Ki against hsHexB
T1 construct: His6; made in house; host or cells: Pichia pastoris GS115 (pPIC9 vector)
T1 sequence (P07686 122-556): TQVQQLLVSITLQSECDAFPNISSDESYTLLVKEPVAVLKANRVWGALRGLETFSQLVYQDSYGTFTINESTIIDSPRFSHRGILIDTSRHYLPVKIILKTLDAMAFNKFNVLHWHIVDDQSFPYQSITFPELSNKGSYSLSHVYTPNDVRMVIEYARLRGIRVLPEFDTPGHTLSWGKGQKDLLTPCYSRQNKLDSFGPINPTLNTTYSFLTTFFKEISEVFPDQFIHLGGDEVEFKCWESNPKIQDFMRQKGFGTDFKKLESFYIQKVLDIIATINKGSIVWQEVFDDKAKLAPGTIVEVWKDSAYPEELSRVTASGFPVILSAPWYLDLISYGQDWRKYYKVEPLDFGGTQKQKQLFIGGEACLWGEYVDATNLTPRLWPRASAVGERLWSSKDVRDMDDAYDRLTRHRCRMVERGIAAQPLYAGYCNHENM
Experimental: (§1) Gene encoding hsHexB, which was engineered to contain a His6-tagged fusion protein, was cloned into pPIC9 expression vector (Invitrogen, Carlsbad, CA, USA), and subsequently transformed into Pichia pastoris GS115 (Invitrogen, Carlsbad, CA, USA) by electroporation. The cells were first cultured in BMGY broth (1% yeast extract, 1% glycerol, 2% peptone, 0.2% biotin, 1.34% yeast nitrogen, 0.1 M potassium phosphate, pH 6.0) at 30 °C. Methanol was added into the culture daily at a final concentration of 1% (v/v). When OD600 value reached 2.0 (after ∼120 h), the cells were harvested by centrifugation at 6000g for 10 min. While the pellet was resuspended in BMMY broth (1% yeast extract, 1% methanol, 2% peptone, 0.2% biotin, 1.34% yeast nitrogen, 0.1 M potassium phosphate, pH 6.0), the supernatant was subjected to ammonium sulfate precipitation (75% saturation) at 4 °C, in which the precipitate was further resuspended in distilled water and then desalted in buffer A (20 mM sodium phosphate, 0.5 M sodium chloride, pH 7.4). Subsequently, the resuspension solution was centrifuged at 17,000g for 30 min at 4 °C and passed through a 0.2-µm filter prior to loading onto a 5-ml HisTrap FF affinity column (GE Healthcare, Chicago, IL, USA), which was pre-equilibrated with buffer A. To remove nonspecific binding proteins, the column was sequentially washed with buffer A-containing 20 mM imidazole and buffer A-containing 50 mM imidazole. Finally, the target protein was eluted with buffer B (20 mM sodium phosphate, 0.5 M sodium chloride, 150 mM imidazole, pH 7.4). Purity of the protein was further analyzed by SDS–PAGE. hOGA was overexpressed in Escherichia coli BL21(DE3) and purified as described previously.
(§2) Potencies of hsHexB and hOGA were assayed by end-point experiment, in which 4-methylumbelliferyl N-acetyl-β-D-glucosaminide (4-MU-GlcNAc; Sigma, St. Louis, MO, USA) was used as a substrate. Various concentrations of inhibitors and substrates (50 µM, 25 µM, and 12.5 µM) were mixed with Britton-Robinson buffer (hsHexB, pH 4.0; hOGA, pH 6.0), dimethylsulfoxide at a final concentration of 2%, enzyme, and 40 µM 4-MU-GlcNAc in a reaction of 100-µl final volume, and incubated at 30 °C for 30 min. Then, the enzymatic reaction was terminated by the addition of 100 µl of 0.5 M sodium carbonate solution. The fluorescence of the released 4-methylumbelliferone was quantified (excitation at 366 nm, emission at 445 nm) on a Varioskan Flash microplate reader (Thermo Fisher Scientific, Waltham, MA, USA). To determine the inhibition constant (Ki), the reciprocal plots of 1/velocity versus inhibitor were constructed. Data analysis was performed using Graph Pad Prism software (Graph Pad Software Inc., San Diego, CA, USA).

hsHexA = test system: hsHexA; set-up: method as in PMID 17317569; conditions: read-out: IC50 against hsHexA; cited from earlier work
[2] = test system: GH20 and GH84 β-N-acetylhexosaminidases; set-up: method as in PMID 22280348, PMID 23688083; conditions: cited from earlier work
hsHexB [3] = molecular target: T1, hsHexB; set-up: method as in PMID 20187655; conditions: cited from earlier work
hsHex = molecular target: hsHex; set-up: method as in PMID 24900704; conditions: read-out: Ki against hsHex; cited from earlier work
hOGA = molecular target: T2, hOGA (Homo sapiens, UniProt O60502); assay: Inhibitory potency assay, end-point, 4-MU-GlcNAc substrate, pH 6.0; type: biochemical; conditions: for Ki: 4-MU-GlcNAc, pH 6.0, 30 °C, 30 min, read-out: Ki against hOGA; for Inhibition potency against hOGA (in words): each compound at 20 µM, Figure 3
T2 construct: made in house; host or cells: Escherichia coli BL21(DE3)
T2 sequence (O60502 1-916): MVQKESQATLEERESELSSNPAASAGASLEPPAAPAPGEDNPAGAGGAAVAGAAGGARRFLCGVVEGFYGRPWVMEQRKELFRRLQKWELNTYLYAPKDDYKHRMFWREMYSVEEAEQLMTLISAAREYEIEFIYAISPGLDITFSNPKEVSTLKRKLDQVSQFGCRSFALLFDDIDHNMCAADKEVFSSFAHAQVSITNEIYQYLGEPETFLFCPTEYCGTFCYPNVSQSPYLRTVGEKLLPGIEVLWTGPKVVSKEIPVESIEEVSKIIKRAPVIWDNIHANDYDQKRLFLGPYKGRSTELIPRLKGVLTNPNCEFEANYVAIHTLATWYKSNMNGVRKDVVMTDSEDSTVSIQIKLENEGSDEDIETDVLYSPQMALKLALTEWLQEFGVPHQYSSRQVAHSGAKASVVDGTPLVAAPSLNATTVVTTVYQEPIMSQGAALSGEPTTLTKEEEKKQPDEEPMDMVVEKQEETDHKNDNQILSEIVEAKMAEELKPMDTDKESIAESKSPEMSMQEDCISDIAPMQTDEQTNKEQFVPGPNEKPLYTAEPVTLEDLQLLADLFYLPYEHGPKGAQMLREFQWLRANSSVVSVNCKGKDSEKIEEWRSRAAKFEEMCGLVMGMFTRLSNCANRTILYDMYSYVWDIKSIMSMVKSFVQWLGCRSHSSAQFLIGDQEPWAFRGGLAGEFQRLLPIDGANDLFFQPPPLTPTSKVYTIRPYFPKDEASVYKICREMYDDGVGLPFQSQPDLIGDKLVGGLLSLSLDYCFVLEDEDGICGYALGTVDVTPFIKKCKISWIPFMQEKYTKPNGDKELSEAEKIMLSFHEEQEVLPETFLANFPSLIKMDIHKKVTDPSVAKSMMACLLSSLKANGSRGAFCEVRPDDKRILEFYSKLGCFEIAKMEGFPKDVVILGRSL
Experimental: as §1, §2

[4] = molecular target: GH20 insect β-N-acetylhexosaminidase OfHex1; set-up: method as in PMID 25155420; conditions: read-out: Ki against OfHex1; cited from earlier work

2-[2-[2-[(2-acetamido-β-D-glucopyranosyl)thio]ethylamino]ethyl]-1H-benzo[de] isoquinoline-1,3(2H)-dione [compound 15a]
Inhibition potency against hsHexB (in words) (hsHexB [1]): highest potencies

O=C1c2cccc3cccc(c23)C(=O)N1CCNCCN1C(=O)c2cccc3cccc(c23)C1=O [M-31850]
IC50 (hsHexA): 6 µM

CC1=N[C@@H]2[C@@H](O)[C@H](O)[C@@H](CO)O[C@@H]2S1 [NAG-thiazoline]
Selectivity between GH20 and GH84 β-N-acetylhexosaminidases [2]: non-selectivity

CC(=O)N[C@H]1c2nc(CC(=O)O)cn2[C@H](CO)[C@H](O)[C@@H]1O [Nagstatin]
Selectivity between GH20 and GH84 β-N-acetylhexosaminidases [2]: non-selectivity

CC(=O)N[C@H]1/C(=N/OC(=O)Nc2ccccc2)O[C@H](CO)[C@@H](O)[C@@H]1O [PUGNAc]
Selectivity between GH20 and GH84 β-N-acetylhexosaminidases [2]: non-selectivity

COc1ccc(CN(CCCCCCCN2C[C@H](NC(C)=O)[C@@H](O)[C@H](O)[C@H]2CO)Cc2ccc(OC)cc2)cc1 [compound 4 (5)]
Selectivity for hsHexB toward GH84 hOGA (hsHexB [3]): 250,000 fold
Ki (hsHexB [3]; read-out: Ki against hsHexB): 0.00069 µM

COc1ccc(CNCCN2C(=O)c3cccc4cccc(c34)C2=O)cc1 [compound 7a (7)]
Ki (hsHex): 0.63 µM

CC(=O)N[C@@H]1[C@@H](O)[C@H](O)[C@@H](CO)O[C@H]1SCCNCCCN1C(=O)c2cccc3cccc(c23)C1=O [compound 15b]
Type of inhibition of hOGA (hOGA; Dixon plots, Figure 4B): competitive inhibitors
Ki (hOGA; Dixon plots): 3.76 µM
Inhibition potency against hOGA (in words) (hOGA): highest potency
melting point: 218 to 220 °C
Ki (hsHexB [1]; Dixon plots): 30.4 µM

CC(=O)N[C@@H]1[C@@H](O)[C@H](O)[C@@H](CO)O[C@H]1SCCCNCCN1C(=O)c2cccc3cccc(c23)C1=O [compound 15d]
melting point: 230 to 232 °C
Inhibition potency against hsHexB (in words) (hsHexB [1]): highest potencies

CC(=O)N[C@@H]1[C@@H](O)[C@H](O)[C@@H](CO)O[C@H]1SCCCCCNCCN1C(=O)c2cccc3cccc(c23)C1=O [compound 15g]
Inhibition potency against hsHexB (in words) (hsHexB [1]): highest potencies

CC(=O)N[C@@H]1[C@@H](O)[C@H](O)[C@@H](CO)O[C@H]1SCCCCCCNCCN1C(=O)c2cccc3cccc(c23)C1=O [compound 15j]
Ki (hOGA; Dixon plots): > 100 µM
Type of inhibition of hsHexB (hsHexB [1]; Dixon plots, Figure 4A): competitive inhibitors
Ki (hsHexB [1]; Dixon plots): 0.91 µM
Inhibition potency against hsHexB (in words) (hsHexB [1]): highest potencies

CC(=O)N[C@@H]1[C@@H](O)[C@H](O)[C@@H](CO)O[C@H]1SCCCCCCNCCCN1C(=O)c2cccc3cccc(c23)C1=O [compound 15k]
Inhibition potency against hsHexB (in words) (hsHexB [1]): considerably decreased

CC(=O)N[C@@H]1[C@@H](O)[C@H](O)[C@@H](CO)O[C@H]1SCCCCCCNCCCCN1C(=O)c2cccc3cccc(c23)C1=O [compound 15l]
Inhibition potency against hsHexB (in words) (hsHexB [1]): considerably decreased

CC(=O)N[C@@H]1[C@@H](O)[C@H](O)[C@@H](CO)O[C@H]1SCCCCS[C@@H]1O[C@H](CO)[C@@H](O)[C@H](O)[C@H]1NC(C)=O [compound 17, 1,4-bis[(2-acetamido-2-deoxy-β-D-glucopyranosyl)thio] butane]
Inhibition potency against hOGA (in words) (hOGA): hardly showed activity
melting point: 236 to 238 °C
Inhibition potency against hsHexB (in words) (hsHexB [1]): hardly showed activity

Cc1nnc(CNCCN2C(=O)c3cccc4cccc(c34)C2=O)s1 [compound Q1]
Ki [4]: 4.28 µM

Reference: paper PMC6009855, “Design and synthesis of naphthalimide group-bearing thioglycosides as novel β-N-acetylhexosaminidases inhibitors” (Journal of Enzyme Inhibition and Medicinal Chemistry, 2018)
